ChEMBL document CHEMBL1811835, “Intramolecular ion-pair prodrugs of zanamivir and guanidino-oseltamivir” (Bioorg Med Chem, 2011)

How the values were obtained:
[1] = Octanol-water distribution coefficient, log D of the compound at pH 7.4 at 100 ug/mL; assay type: physicochemical
[2] = Octanol-water distribution coefficient, log D of the compound at pH 6.5; assay type: physicochemical
[3] = test system: Plasma; test: Stability in Sprague-Dawley rat plasma at 1 mM incubated for 24 hrs at 37 degC by MALDI-TOF mass spectrometry; assay type: ADME, cell-free; details: 1000 µM
[4] = test system: Plasma; test: Stability in Sprague-Dawley rat plasma at 1 mM incubated for 24 hrs at 37 degC by LC-QTOF mass spectrometry; assay type: ADME, cell-free; details: 1000 µM

SMILES	logD ([1]; read-out: logD)	logD [2]	further results
CCOC(=O)C1=C[C@H](NC(=N)N)[C@@H](NC(C)=O)[C@H]([C@H](O)[C@H](O)CO)O1	-0.28		
CCCCCCCOC(=O)C1=C[C@H](NC(=N)N)[C@@H](NC(C)=O)[C@H]([C@H](O)[C@H](O)CO)O1 [ZANAMIVIR HEPTYL ESTER]		-1.31	
CCOC(=O)C1=C[C@@H](OC(CC)CC)[C@H](NC(C)=O)[C@@H](NC(=N)N)C1	0.31	-1.17	
CCC(CC)O[C@@H]1C=C(C(=O)O)C[C@H](N)[C@H]1NC(C)=O [OSELTAMIVIR CARBOXYLATE]	-1.5		
CC(=O)N[C@H]1[C@H]([C@H](O)[C@H](O)CO)OC(C(=O)O)=C[C@@H]1N=C(N)N [ZANAMIVIR]	-1		
CCC(CC)O[C@@H]1C=C(C(=O)O)C[C@H](NC(=N)N)[C@H]1NC(C)=O			logD [1]: -0.13
CC(=O)N[C@H]1[C@H]([C@H](O)[C@H](O)CO)OC(C(=O)OCCCOC(=O)c2ccc3ccccc3c2O)=C[C@@H]1NC(=N)N	0.75		Stability [3]: Stable; Stability [4]: Stable
CCC(CC)O[C@@H]1C=C(C(=O)OCCCOC(=O)c2ccc3ccccc3c2O)C[C@H](NC(=N)N)[C@H]1NC(C)=O	0.82		
O=C(O)c1ccc2ccccc2c1O [CARBOXYNAPHTHOL]	0.16	0.25	
